Laboratory results published in patent US20060057628A1, “Method for prognosticating the progress of breast cancer and compounds useful for prevention or treatment thereof” (priority 2003, published 2006).

Assays:
[1] = biological target: T1, 17HSD type-2 enzyme (Homo sapiens, UniProt P37059); test: 17HSD type 2 inhibition in MCF-7 cells stably expressing 17HSD type 2 (HPLC detection); type: cell-based; conditions: MCF-7 cells expressing 17HSD type 2; concentration not given
T1 construct: expressed in transfected cells; host or cells: MCF-7 cells stably expressing 17HSD type 2
T1 sequence (P37059 1-387): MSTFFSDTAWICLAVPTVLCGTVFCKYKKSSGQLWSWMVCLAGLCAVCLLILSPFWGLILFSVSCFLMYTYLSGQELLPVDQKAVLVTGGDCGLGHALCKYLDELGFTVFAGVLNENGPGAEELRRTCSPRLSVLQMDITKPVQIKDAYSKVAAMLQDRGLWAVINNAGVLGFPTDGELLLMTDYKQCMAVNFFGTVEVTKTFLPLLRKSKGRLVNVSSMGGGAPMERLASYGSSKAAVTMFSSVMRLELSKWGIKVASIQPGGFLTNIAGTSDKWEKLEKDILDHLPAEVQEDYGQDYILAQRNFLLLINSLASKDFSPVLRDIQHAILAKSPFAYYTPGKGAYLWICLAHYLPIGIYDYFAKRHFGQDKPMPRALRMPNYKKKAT
Description: (§1) The tested compounds (about 1000 selected different compounds) were screened in respect of 17HSD enzyme activities according to the following method:
(§2) The compounds were screened in respect of 17HSD enzyme activities in vitro on two established MCF-7 cell lines, each stably expressing one 17HSD isoenzyme, either 17HSD type 1 or 17HSD type 2, but not the other one. The interconversion of substrate by each isoenzyme and the HSD-inhibiting activity of chemical compounds in these cell lines was detected by HPLC system (Miettinen et al., Int J Cancer (1996) 68, 600-604).
(§3) Varying amounts of the test compounds were incubated in the growth medium of the 17HSD expressing cells together with tritium labeled substrate (estrone for 17HSD type 1 enzyme; 20 nM). The medium samples were removed after exact incubation time and the reaction was stopped by deepfreezing. The samples were analyzed by HPLC-coupled flow scintillation analysis. The 17HSD-inhibiting activity of the test compounds was compared to known reference compound apigenin and to a negative control.

[2] = biological target: T2, 17HSD type 1 (Homo sapiens, UniProt P14061); test: 17HSD type 1 inhibition in MCF-7 cells stably expressing 17HSD type 1 (HPLC detection of tritium labeled estrone conversion); type: cell-based; set-up: expressed in transfected cells; host or cells: MCF-7 cells stably expressing 17HSD type 1; conditions: MCF-7 cells expressing 17HSD type 1, substrate estrone 20 nM
T2 sequence (P14061 1-328): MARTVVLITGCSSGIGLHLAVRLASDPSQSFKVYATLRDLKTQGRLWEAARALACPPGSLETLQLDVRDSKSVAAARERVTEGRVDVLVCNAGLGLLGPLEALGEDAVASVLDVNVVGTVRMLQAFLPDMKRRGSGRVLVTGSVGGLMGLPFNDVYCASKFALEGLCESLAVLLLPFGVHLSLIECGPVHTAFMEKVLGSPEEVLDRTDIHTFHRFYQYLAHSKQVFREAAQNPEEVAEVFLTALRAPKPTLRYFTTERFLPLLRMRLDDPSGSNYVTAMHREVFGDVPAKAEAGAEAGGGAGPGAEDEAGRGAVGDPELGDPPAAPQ
Description: as §1, §2, §3

Row | inhibition of the 17HSD type-2 enzyme [1] | inhibition of the 17HSD type 1 enzyme ([2]; concentration 1 μM) [%] | inhibition of the 17HSD type 1 enzyme ([2]; concentration 10 μM) [%] | inhibition at 1 µM ([2]; MCF7, concentration 1 μM) [%] | Compound
1 | did not show any inhibition effect | 80 | 95 |  | O=CC1=C(Sc2ccccc2)c2sc3nc4n(c(=O)c3c2CC1)CCCCC4 [Compound A]
2 | 5% |  |  | 48 | O=c1cc(-c2ccc(O)cc2)oc2cc(O)cc(O)c12 [apigenin]
